# Patent US20240416143A1, “PHOTONIC ANTIMICROBIAL WOUND SURFACE DRESSING” (The General Hospital Corporation, priority 2021, published 2024)
# Where two headings read alike, the source gives them in different places.
# What was measured:
# [1] = in vivo; cited from earlier work
# P. aeruginosa = assay: MIC of menadione by broth microdilution, with or without aBL; assay type: cell-based, Pseudomonas aeruginosa PA01
# Protocol: The MICs of menadione in different bacterial strains were determined by a standard broth microdilution assay according to the Clinical and Laboratory Standards Institute. Briefly, menadione was prepared at 100 mg/mL in Tween 80/DMSO (1:1) as a stock solution. The stock solution was diluted to 2048 μg/mL in BHI and then serial dilutions were performed to 1024-0.015 μg/mL in a 96-well plate. Then, a 10 μL stationary growth-phase culture of 10^8 CFU/mL bacteria in BHI broth was added to the 96-well plate containing the serial dilutions of menadione. The medium containing a similar amount of Tween 80/DMSO (1:1) served as a control. The microplates were incubated at 37° C. for 24 hours and the lowest concentration of the compound capable of completely inhibiting bacterial growth was referred to as the MIC.
# However, we investigated the effects of aBL (50 mW/cm^2) in potentiating the antibacterial activities of menadione in the three strains of bacteria. […] The highest fluence that we investigated was 125 J/cm^2, when we irradiated the bacteria for 42 minutes.
# [2] = UV-Vis absorption spectroscopy of menadione; assay type: physicochemical
# Protocol: Stock solutions of menadione (10 mg/mL) were prepared in DMSO only and in DMSO/Tween (1:1) to improve the solubility. Different concentrations of menadione were prepared to make a calibration curve by diluting the stock solution in PBS so that the final solution was either 1% DMSO or 1% DMSO/Tween. The absorbance spectra were measured using an Evolution™ 300 UV-Vis Spectrophotometer (Thermo Scientific, Waltham, Massachusetts, USA). The calibration curve was measured, and molar absorption coefficient calculated.
# Thus, we dissolved the menadione in two conditions: in PBS containing either 1% DMSO or 1% DMSO/Tween80 at 400 μM. Tween 80 is a surfactant and the idea is to mix with the DMSO before to add to PBS is due to necessity to improve the solubility of menadione in aqueous solution. We measured the absorption spectrum in both conditions to analyze if there is any change in optical properties. The range of wavelength absorption of menadione was measured between 200-800 nm (see FIG. 12B) to choose the optimum wavelength of the light absorption spectra. […] The maximum wavelength of absorption found was 340 nm for both conditions. […] The molar absorptivity coefficient was compared in different wavelength according with the Table 1.
# MRSA = assay: General ROS by DCFH-DA assay in bacteria; assay type: cell-based, methicillin-resistant Staphylococcus aureus
# Protocol: 1.2.9.1 General ROS measured by […] (DCFH-DA) assay: DCF-DA was purchased from Thermofisher. […] The production of ROS by menadione when combined with blue light was measured in the presence and absence of bacteria. The bacteria (MRSA) was grown in BHI broth medium with shaking overnight. Cells were collected by centrifugation at 4,000 rpm for 5 minutes and resuspended in PBS in the stationary growth phase culture of 1×10^8 CFU/mL. The microbial suspension was transferred to a 35×12-mm dish, mixed with 10 μg/mL of menadione, and stained with 10 μM DCFH-DA solution per the manufacturer's instruction. The solutions (with and without bacteria) were irradiated with the blue light at 50 mW/cm^2 and the samples were collected every 15 minutes to be analyzed by Microplate Spectrofluorometer (SPECTRAmax®, Molecular Devices, USA) at λex=495 nm and λem=525 nm. The control and the menadione/dark groups were generated under the same conditions without irradiation.
# We investigated the possibility that minocycline and doxycycline might be acting as a photosensitizer. To do so, the production of ROS by minocycline and doxycycline combined with blue light was measured by the ROS probe DCF in MRSA. From FIG. 28, it can be observed that each of minocycline and doxycycline when combined with blue light at 405 nm produced ROS.
structure (smiles),measurement,setting,value
"CC1=CC(=O)c2ccccc2C1=O [menadione, 2-methyl-1,4-naphthoquinone]",adverse effect at high doses,[1],hepatitis
same,MIC,"P. aeruginosa; Pseudomonas aeruginosa, light or radiation study, 5 min, aBL 15.62 J/cm^2 (5 mins.), 50 mW/cm^2, read-out: MIC",64 µg/mL
same,MIC,"P. aeruginosa; Pseudomonas aeruginosa, light or radiation study, 0.175 h, aBL 31.25 J/cm^2 (10.5 mins.), 50 mW/cm^2, read-out: MIC",8 µg/mL
same,MIC,"P. aeruginosa; Pseudomonas aeruginosa, light or radiation study, 0 J/cm^2 (Dark), read-out: MIC",1020 µg/mL
same,MIC,"P. aeruginosa; aBL 62.5 J/cm^2 (21 mins.), 50 mW/cm^2",complete eradication
same,MIC,"P. aeruginosa; aBL 125 J/cm^2 (42 mins.), 50 mW/cm^2",completely eradicated
same,maximum wavelength of absorption,"[2]; 400 μM in PBS with 1% DMSO or 1% DMSO/Tween80, both conditions",340 nm
same,"ε, molar absorptivity coefficient, λ = 340 nm",[2]; 1% DMSO in PBS,2458 L/mol/cm
same,"ε, molar absorptivity coefficient, λ = 380 nm",[2]; 1% DMSO in PBS,572.1 L/mol/cm
same,"ε, molar absorptivity coefficient, λ = 405 nm",[2]; 1% DMSO in PBS,128.82 L/mol/cm
same,"ε, molar absorptivity coefficient, λ = 340 nm",[2]; 1% DMSO/Tween in PBS,2064 L/mol/cm
same,"ε, molar absorptivity coefficient, λ = 380 nm",[2]; 1% DMSO/Tween in PBS,410.31 L/mol/cm
same,"ε, molar absorptivity coefficient, λ = 405 nm",[2]; 1% DMSO/Tween in PBS,113.85 L/mol/cm
same,"production of ROS measured by DCF, menadione+aBL vs aBL alone","MRSA; MRSA, 10 μg/mL menadione, 180 J/cm^2",two times higher
same,ROS generation in bacteria by menadione in the dark,MRSA; absolute dark,does not appear to generate significant ROS
same,"increase of total ROS, menadione combined with aBL","MRSA; bacteria, menadione + aBL",2.5 fold
